Test results published in PubChem BioAssay AID330 (DTP/NCI, 2004).
“And” between values parts separate entries of the source, which are not always exact repeats. Equal values may be shown once. Inconclusive results and toxic doses are left out. How the source made its calls: active means survival T/C of 150% or more; inactive means T/C below 125% in these data.

Tested on: P388 leukemia ip, CD2F1 mice, survival T/C
Experiment: NCI In Vivo Anticancer Drug Screen. Data for tumor model P388 Leukemia (intraperitoneal) in CD2F1 (CDF1) mice
Conditions: endpoint: median survival time, higher = longer survival
Method in brief: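 Mice carrying the transplanted tumor received test compound or vehicle. Survival was recorded in each group, and the value is the treated-group measurement divided by that of the vehicle-treated control group.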

[1] = dose: 60.0 mg/kg/injection, schedule: Q01DX005 (ip), vehicle: saline with Tween-80
[2] = dose: 120.0 mg/kg/injection, schedule: Q01DX005 (ip), vehicle: saline with Tween-80
[3] = dose: 25.0 mg/kg/injection, schedule: Q01DX009 (ip), vehicle: saline with Tween-80
[4] = dose: 50.0 mg/kg/injection, schedule: Q01DX009 (ip), vehicle: saline with Tween-80
[5] = dose: 100.0 mg/kg/injection, schedule: Q01DX009 (ip), vehicle: saline with Tween-80
[6] = dose: 200.0 mg/kg/injection, schedule: Q01DX009 (ip), vehicle: saline with Tween-80

Measured: T/C

COc1cc(O)c(O)c(C(C)(C)C)c1
inactive: dose: 3.75 mg/kg/injection, schedule: Q01DX005 (ip), vehicle: saline with Tween-80 103 % of control | dose: 7.5 mg/kg/injection, schedule: Q01DX005 (ip), vehicle: saline with Tween-80 105 % of control | dose: 15.0 mg/kg/injection, schedule: Q01DX005 (ip), vehicle: saline with Tween-80 108 % of control | dose: 30.0 mg/kg/injection, schedule: Q01DX005 (ip), vehicle: saline with Tween-80 116 % of control | [1] 107 % of control | [2] 95 % of control

CC1(CO)CSC(Nc2ccc(Cl)c(Cl)c2)=N1 (centres undefined)
inactive: dose: 3.12 mg/kg/injection, schedule: Q01DX009 (ip), vehicle: saline with Tween-80 101 % of control | dose: 6.25 mg/kg/injection, schedule: Q01DX009 (ip), vehicle: saline with Tween-80 100 % of control and 98 % of control | dose: 12.5 mg/kg/injection, schedule: Q01DX009 (ip), vehicle: saline with Tween-80 102 % of control | [3] 104 % of control | [4] 100 % of control | [5] 113 % of control | [6] 98 % of control

C/C(=N\NC(=S)N(C)C)c1ncccn1
inactive: dose: 12.5 mg/kg/injection, schedule: Q04DX003 (ip), vehicle: Klucel (hydroxypropylcellulose) (HPC) 107 % of control | dose: 25.0 mg/kg/injection, schedule: Q04DX003 (ip), vehicle: Klucel (hydroxypropylcellulose) (HPC) 103 % of control | dose: 50.0 mg/kg/injection, schedule: Q04DX003 (ip), vehicle: Klucel (hydroxypropylcellulose) (HPC) 105 % of control

CCc1ccc(NCc2ccc(CNc3ccc(CC)cc3)cc2)cc1
inactive: [4] 86 % of control | [5] 96 % of control | [6] 94 % of control

O=[N+]([O-])c1ccccc1NC1CCN(CCCC2(c3ccc(F)cc3)OCCO2)CC1
inactive: [1] 97 % of control | [2] 101 % of control | dose: 240.0 mg/kg/injection, schedule: Q01DX005 (ip), vehicle: saline with Tween-80 99 % of control

COc1cc2c(cc1Br)C(=O)C(Br)(Br)CCC2Br (centres undefined)
inactive: dose: 50.0 mg/kg/injection, schedule: Q01DX009 (ip), vehicle: Klucel (hydroxypropylcellulose) (HPC) 118 % of control | dose: 100.0 mg/kg/injection, schedule: Q01DX009 (ip), vehicle: Klucel (hydroxypropylcellulose) (HPC) 118 % of control | dose: 200.0 mg/kg/injection, schedule: Q01DX009 (ip), vehicle: Klucel (hydroxypropylcellulose) (HPC) 114 % of control

C#CCOCCCC(=C)C
inactive: dose: 3.12 mg/kg/injection, schedule: Q01DX005 (ip), vehicle: saline 103 % of control | dose: 6.25 mg/kg/injection, schedule: Q01DX005 (ip), vehicle: saline 99 % of control | dose: 12.5 mg/kg/injection, schedule: Q01DX005 (ip), vehicle: saline 100 % of control | dose: 25.0 mg/kg/injection, schedule: Q01DX005 (ip), vehicle: saline 100 % of control

CC(=O)CC(=O)N(C)C
inactive: dose: 50.0 mg/kg/injection, schedule: Q01DX009 (ip), vehicle: saline 100 % of control | dose: 100.0 mg/kg/injection, schedule: Q01DX009 (ip), vehicle: saline 98 % of control | dose: 200.0 mg/kg/injection, schedule: Q01DX009 (ip), vehicle: saline 99 % of control | dose: 400.0 mg/kg/injection, schedule: Q01DX009 (ip), vehicle: saline 99 % of control

CCCCCCC(CCCCCC)=NO
inactive: dose: 50.0 mg/kg/injection, schedule: Q01DX005 (ip), vehicle: saline with Tween-80 95 % of control | dose: 100.0 mg/kg/injection, schedule: Q01DX005 (ip), vehicle: saline with Tween-80 113 % of control | dose: 200.0 mg/kg/injection, schedule: Q01DX005 (ip), vehicle: saline with Tween-80 104 % of control

CC1(C)N=C(N)N=C(N)N1c1ccc(OCC(=O)Nc2ccccc2)c(Cl)c1
inactive: [3] 100 % of control | dose: 25.0 mg/kg/injection, schedule: Q04DX003 (ip), vehicle: saline with Tween-80 100 % of control | [4] 104 % of control | dose: 50.0 mg/kg/injection, schedule: Q04DX003 (ip), vehicle: saline with Tween-80 100 % of control | [5] 109 % of control | dose: 100.0 mg/kg/injection, schedule: Q04DX003 (ip), vehicle: saline with Tween-80 113 % of control

CCOC(=O)C(Br)c1cccc(OC)c1 (centres undefined)
inactive: [5] 91 % of control | [6] 95 % of control | dose: 400.0 mg/kg/injection, schedule: Q01DX009 (ip), vehicle: saline with Tween-80 95 % of control

COc1cc(O)cc2c1CCC(c1ccccc1)O2 (centres undefined)
inactive: dose: 1.8 mg/kg/injection, schedule: Q01DX005 (ip), vehicle: Klucel + Tween-80 107 % of control | dose: 3.5 mg/kg/injection, schedule: Q01DX005 (ip), vehicle: Klucel + Tween-80 107 % of control | dose: 7.0 mg/kg/injection, schedule: Q01DX005 (ip), vehicle: Klucel + Tween-80 97 % of control | dose: 14.0 mg/kg/injection, schedule: Q01DX005 (ip), vehicle: Klucel + Tween-80 100 % of control
